Results taken from patent US20180057530A1, “CYCLIC PEPTIDE COMPOUND, AND PREPARATION AND USE THEREOF” (Zhejiang Hisun Pharmaceutical Co., Ltd., priority 2015, published 2018).
“And” between values parts separate entries of the source, which are not always exact repeats. Equal values may be shown once. Marks after values point to notes of the source that are not given here.

Key:
[1] = system: tumor cells; assay: MTT tumor cell growth inhibition, summary over the cell line panel; format: cell-based; settings: ten tumor cell lines of Table 2, MTT, 72 hours; read-out: IC50 of tumor cell proliferation inhibition, span over the tested cell lines
Excerpt: (§1) The tetrazolium salt (MTT) reduction method was used to test the activity of the compounds of the present invention. Human breast cancer cells (MDA-MB-231) (CAS cell library; catalog number: TCHu227), human lung cancer cells (A549) (ATCC® Number: CRM-CCL-185™), human colon cancer cells (HCT-116) (CAS cell library; catalog number: TCHu99), acute monocytic leukemia cells (MV4-11) (ATCC® Number: CRL-9591™), tissue cell lymphoma cells (U-937) (CAS cell library; catalog number: TCHu159), human acute promyelocytic leukemia cells (HL-60) (ATCC® Number: CCL-240™), chronic myelogenous leukemia cells (of K562) (CAS cell library; catalog number: TCHu191), human hepatocellular carcinoma cells (BEL-7404) (CAS cell library; catalog number: TCHu64), human pancreatic cancer cells (BxPC3) (ATCC® Number: […])) and human prostate cancer cells (PC-3) (ATCC®Number: […]) were inoculated in 96-well plates, 90 μL/well, with 3000 to 8000 cells in respective well; in the first row of plate, 100 μL/well culture medium was added; the 96-well plate was pre-incubated in an incubator at 37° C., 5% CO2, and 100% relative humidity for 24 hours.
(§2) A compound was weighed and configured to a 10 mM/L stock solution, and the compound was diluted three-fold sequentially from the highest concentration of 2 millimoles (mM); 95 μl the corresponding cell medium was added to each well of a V-bottom dispensing plate; 5 μl of the compound on a 200× plate was transferred to a 10× dispensing plate according to the concentration; 5 μl of dimethylsulfoxide (DMSO) was evenly mixed in the corresponding 95 μl cell culture medium as a vehicle control. 10 μl of the compound-medium in each well of the 10× dispensing plate was added to a 96-well plate already plated with cells. […]
(§3) After the compound for cells was treated for 72 hours, 20 microliters of 5 mg/ml MTT was added to each well; all the steps need to be aseptic. […] The absorbance at 490 nm was read on a SpectraMax M2e instrument. The compound activity (relative IC50) was calculated using GraphPad Prism software.

[2] = system: chronic myelogenous leukemia cells (K562); assay: MTT tumor cell growth inhibition, K562; format: cell-based; settings: Homo sapiens, 72 hours, relative IC50
Excerpt: as §1, §2, §3

[3] = system: human lung cancer cells (A549); assay: MTT tumor cell growth inhibition, A549; format: cell-based; settings: 72 hours, relative IC50
Excerpt: as §1, §2, §3

[4] = system: human pancreatic cancer cells (BxPC3); assay: MTT tumor cell growth inhibition, BxPC3; format: cell-based; settings: BXPC-3, 72 hours, relative IC50
Excerpt: as §1, §2, §3

[5] = system: human hepatocellular carcinoma cells (BEL-7404); assay: MTT tumor cell growth inhibition, BEL-7404; format: cell-based; settings: BEL-7404, MTT, 72 hours, relative IC50
Excerpt: as §1, §2, §3

[6] = system: tissue cell lymphoma cells (U-937); assay: MTT tumor cell growth inhibition, U-937; format: cell-based; settings: Homo sapiens; U-937, MTT, 72 hours, relative IC50
Excerpt: as §1, §2, §3

[7] = system: human prostate cancer cells (PC-3); assay: MTT tumor cell growth inhibition, PC-3; format: cell-based; settings: PC-3, MTT, 72 hours, relative IC50
Excerpt: as §1, §2, §3

[8] = system: human colon cancer cells (HCT-116); assay: MTT tumor cell growth inhibition, HCT-116; format: cell-based; settings: HCT-116, MTT, 72 hours, relative IC50
Excerpt: as §1, §2, §3

[9] = system: acute monocytic leukemia cells (MV4-11); assay: MTT tumor cell growth inhibition, MV4-11; format: cell-based; settings: Homo sapiens; MV4-11, MTT, 72 hours, relative IC50
Excerpt: as §1, §2, §3

[10] = system: MDA-MB-231 breast cancer; assay: In vivo efficacy study of compound B, xenografted MDA-MB-231 breast cancer; design: species or system BALB/c nude mice; settings: once a week for four weeks; for Day 28 tumor volume: mean ± standard error
Experimental: Female BALB/C nude mice 6 weeks to 8 weeks old and weighing about 19 g to 29 g were taken and raised for one week (supplier: Beijing Vital River Laboratory Animal Technology Co., Ltd.) MDA-MB-231 (ATCC® Number: HTB-26™) breast cancer cells were cultured in vitro; the culture conditions were: 10% fetal bovine serum was added to an L-15 medium, 37° C., and 0% CO2. Passage was performed twice a week. When the cells were in the exponential growth phase, the cells were collected, counted, and inoculated. […] The cells were suspended in phosphate buffered saline (PBS) and Matrigel (1:1) was added. A total of 50 mice were inoculated. […] The experimental indicator was to examine whether the tumor growth was inhibited, delayed, or subsided. Tumor diameter was measured three times a week with a vernier caliper. The formula for calculating tumor volume is as follows: […] The antitumor efficacy of the compound was evaluated with T/C (%) and of TGI. […] T0 indicates the mean tumor volume of the treatment group at the time of administration by cage; Vi indicates the mean tumor volume of the vehicle group on the same day; V0 indicates the mean tumor volume of the vehicle group at the time of administration by cage. At the end of the experiment, the tumors were stripped, weighed, and photographed.

[11] = system: Human breast cancer cells (MDA-MB-231); assay: MTT tumor cell growth inhibition, MDA-MB-231; format: cell-based; settings: MDA-MB-231, MTT, 72 hours, relative IC50
Excerpt: as §1, §2, §3

[12] = system: human acute promyelocytic leukemia cells (HL-60); assay: MTT tumor cell growth inhibition, HL-60; format: cell-based; settings: HL-60, MTT, 72 hours, relative IC50
Excerpt: as §1, §2, §3

[13] = system: Human breast cancer cell line MDA-MB-231; assay: In vivo pharmacodynamic study of compound A, MDA-MB-231 nude mice transplanted tumor model; design: species or system BALB/C nude mice; settings: MDA-MB-231 model, 2.4 mg/kg, q4d, 4x
Experimental: (§4) Female BALB/C nude mice 6 weeks to 8 weeks old and weighing about 19 g to 29 g were taken (Supplier: Beijing Vital River Laboratory Animal Technology Co., Ltd.) and raised for a week. A human cancer nude mice […] transplanted tumor model was established: Human breast cancer cell line MDA-MB-231 (ATCC® Number: HTB-26™) and human lung cancer cell line NCI-H460 (ATCC® Number: HTB-177™) were incubated. The monolayer tumor cells were digested and detached; then, they were collected and resuspended in a serum-free culture medium, and then were adjusted to a concentration of 2×10^6/0.2 mL. They were put into an iced box and brought to an animal house. A syringe with a No. 6 needle was used to directly take a 0.2 mL cell suspension and transplanted it into the rear subcutaneous scapular regions of the left axillaries of the nude mice at 2×10^6/0.2 mL per mouse. Tumor volumes were measured once every 2 days to 3 days. After two weeks, tumor-bearing nude mice with vigorous tumor growth and no ulceration were selected, the tumors were removed from them under sterile conditions. The tumor tissues were cut to about 2 mm to 3 mm in diameter and inoculated in the rear subcutaneous scapular regions of the left axillaries of the nude mice. After passage for three generations, when the tumor volume grew to 100 mm^3, nude mice with tumor masses that were too large or too small were removed and randomly grouped for administration.
(§5) The mice were randomly divided into five groups, including the negative control group (vehicle), positive control group (Romidepsin, 2.4 mg/kg), treatment group with the high, medium, and low doses of compound A (respectively 7.2 mg/kg, 4.8 mg/kg, 2.4 mg/kg, wherein the high dose was lower than the maximum tolerated dose, MTD); there were six nude mice in each group; intravenous administration was given every 4 days; 4 doses were given. During the period, the weights and tumor volumes of the animals were measured every 2 days, and the number of animal deaths was recorded. 24 hours after the last administration, the animals were sacrificed. The tumor volumes, tumor weights, and body weights of nude mice were measured; tumor volume growth curves, nude mice weight growth curves and tumor inhibition rates, mortality of the animals were plotted; the relative tumor proliferation rate T/C (%) was calculated; according to the formula T/C (%)=TRTV/CRTV*100%. (TRTV: treatment group RTV; CRTV: negative control group RTV, relative tumor volume RTV=Vt/V0, wherein V0 is the tumor volume at the time of administration by group; Vt is the post-administration tumor volume).

[14] = system: blood cells; assay: Effect on blood phase, complete blood count (CBC) analysis; format: in vivo, BAB-C mice; settings: mice, 0.5 mg/kg; for PLT / RBC / WBC: mean±SD
Experimental: BAB-C mice (6 to 8 weeks old, a half being males and the other half females, weighing about 18 g-25 g, supplier: Beijing Vital River Laboratory Animal Technology Co., Ltd.) were raised for one week and then divided into three groups: normal control group, Romidepsin group, and compound A group. The normal group was injected with the vehicle; the drug group was injected with 0.5 mg/kg of the drug; 24 hours and 48 hours respectively after administration, a complete blood count (CBC) analysis was performed; for all the data, mean±standard deviation (mean±SD) was adopted; T tests were performed between inter-group data.

[15] = system: human lung cancer cell line NCI-H460; assay: In vivo pharmacodynamic study of compound A, NCI-H460 nude mice transplanted tumor model; design: species or system BALB/C nude mice; settings: 2.4 mg/kg, q4d, 4x
Experimental: as §4, §5

| SMILES | IC50 [1] [nM] | IC50 [2] [nM] | IC50 [3] [nM] | IC50 [4] [nM] | IC50 [5] [nM] | IC50 [6] [nM] | IC50 [7] [nM] | IC50 [8] [nM] | IC50 [9] [nM] | Day 28 tumor volume ([10]; 6.6 mg/kg intravenous) | T/C (%) ([10]; day 28, 6.6 mg/kg intravenous) | TGI (%) ([10]; day 28, 6.6 mg/kg intravenous) | IC50 [11] [nM] | IC50 [12] [nM] | further results |
| --- | --- | --- | --- | --- | --- | --- | --- | --- | --- | --- | --- | --- | --- | --- | --- |
| C/C=C1\NC(=O)[C@H]2CS[S+]([O-])CC/C=C/[C@H](CC(=O)N[C@H](C(C)C)C(=O)N2)OC(=O)[C@H](C(C)C)NC1=O (stereo partly drawn) [Compound B] | 2 to 6.5 | 2.6 | 3.6 | 6.5 | 4.9 | 5.4 | 6.1 | 6.1 | 4.8 | 187 ± 29 mm^3 | 4.5 | 95.5 | 2 | 3.4 | Day 28 tumor volume ([10]; 2.2 mg/kg intravenous): 259 ± 47 mm^3; Day 28 tumor volume ([10]; 2.2 mg/kg intravenous, listed as compound B): 259 mm^3; Day 28 tumor volume ([10]; 4.4 mg/kg intravenous): 202 ± 38 mm^3; Day 28 tumor volume ([10]; 4.4 mg/kg intravenous, listed as compound B): 202 mm^3; Day 28 tumor volume ([10]; 6.6 mg/kg intravenous, listed as compound B): 187 mm^3; T/C (%) ([10]; day 28, 2.2 mg/kg intravenous): 11.3%; TGI (%) ([10]; day 28, 2.2 mg/kg intravenous): 88.7%; T/C (%) ([10]; day 28, 4.4 mg/kg intravenous): 5.9%; TGI (%) ([10]; day 28, 4.4 mg/kg intravenous): 94.1% |
| C/C=C1\NC(=O)[C@H]2CSSCC/C=C/[C@H](CC(=O)N[C@H](C(C)C)C(=O)N2)OC(=O)[C@H](C(C)C)NC1=O [Romidepsin, reference compound] | 3.6 to 8.7 | 4.1 | 5.2 | 8.7 | 6.4 | 7.2 | 7.1 | 6.5 | 6.8 | 260 mm^3 and 260 ± 103 mm^3 | 11.4 | 88.6 | 3.6 | 8.6 | Relative tumor proliferation rates T/C (%) [13]: 48.9%(2.4 mg/kg, q4d, 4x); PLT ([14]; 24 h after administration): 600.56 ± 71.51** 1 × 10*9/L; RBC ([14]; 24 h after administration): 10.30 ± 0.47 1 × 10*12/L; WBC ([14]; 24 h after administration): 4.32 ± 2.61** 1 × 10*9/L; PLT ([14]; 48 h after administration): 431.31 ± 64.96** 1 × 10*9/L; RBC ([14]; 48 h after administration): 10.23 ± 0.78 1 × 10*12/L; WBC ([14]; 48 h after administration): 6.92 ± 3.29** 1 × 10*9/L; WBC count decrease ([14]; at 24 h, vs normal group): 75%; PLT compared with the normal group ([14]; at 24 h and 48 h): significantly decreased; WBC count restored to percent of the normal group ([14]; at 48 h): 40%; Relative tumor proliferation rates T/C (%) [15]: 42.2%(2.4 mg/kg, q4d, 4x) |
